Measurements: publication PMC3493588 (2012)

System: d(CCG)8C (KR-2) (DNA, single strand) CCGCCGCCGCCGCCGCCGCCGCCGC
Assay: tryptophan fluorescence quenching titration
Settings: Na+ (0.01 M NaCl); 0.02 M Hepes, pH 7.5-7.7, 0.0001 M EDTA, 20 °C; half salt-reversal at 0.06 M Na+; weaker at higher NaCl

binding: yes
Substance: H-RWRWKL-NH2
